These results are taken from patent publication US20250319183A1, “COMPOSITIONS AND METHODS FOR THE TREATMENT OF CANCER” (Beth Israel Deaconess Medical Center, priority 2021, published 2025).

For one assay, the system named is AML cell. The note with it: in combination with decitabine; cited from earlier work.
For a further assay, the system named is THP-1. Put plainly: TCRL antibody binding (PR1-HLA-A2 presentation) on THP-1, flow cytometry. It is filed as cell-based. The note with it: four doses of 1 μM added twice daily for two days, then two days culture. As for the experimental part:
To determine the effect hypomethylation agents (HMAa) have on tumor antigen presentation, AML patient-derived tumor cells were treated for two days with four doses of 1 μM SGI-110, an HMA, added twice daily and then cultured for additional two days. TAP2 expression was assessed using immunohistochemical staining with and without treatment with SGI-110 (FIG. 3A). The HLA-A2 expressing AML cell line, THP-1, was treated for two days with four doses of 1 μM SGI-110 added twice daily and then cultured for an additional two days. The cells were then analyzed for binding capacity of a unique T cell receptor-like (TCRL) antibody. The TCRL antibody is a TCR mimic that recognizes the PR1-HLA-A2-MHC complex on the surface of leukemic cells where PR-1 is a known leukemic antigen. […] An HLA-A2 negative cell line U937 (histiocytic lymphoma) was used as a negative control.
A general note: A flow cytometer gives signals particle by particle.

Assay [1] relates to chronic lymphocytic leukemia (CLL) and AML cells. The note with it: cited from earlier work.
Assay [2] concerns multiple myeloma (MM) and AML cell lines. The conditions noted are these: single agent; cited from earlier work.

Square brackets hold non-standard residues; d marks the D form. Peptide text beside a SMILES is read from it.

Take `N=C(N)NCCC[C@@H](N)C(=O)N[C@H](CCCNC(=N)N)C(=O)N[C@H](CCCNC(=N)N)C(=O)N[C@H](CCCNC(=N)N)C(=O)N[C@H](CCCNC(=N)N)C(=O)N[C@H](CCCNC(=N)N)C(=O)N[C@H](CCCNC(=N)N)C(=O)N[C@H](CCCNC(=N)N)C(=O)N[C@H](CCCNC(=N)N)C(=O)N[C@H](CS)C(=O)N[C@H](CCC(N)=O)C(=O)N[C@H](CS)C(=O)N[C@H](CCCNC(=N)N)C(=O)N[C@H](CCCNC(=N)N)C(=O)N[C@H](CCCCN)C(=O)N[C@H](CC(N)=O)C(=O)O.O=C(O)C(F)(F)F` [GO-203, D-arginyl-D-arginyl-D-arginyl-D-arginyl-D-arginyl-D-arginyl-D-arginyl-D-arginyl-D-arginyl-D-cysteinyl-D-glutaminyl-D-cysteinyl-D-arginyl-D-arginyl-D-lysyl-D-asparagine trifluoroacetic acid] (H-[dR][dR][dR][dR][dR][dR][dR][dR][dR][dC][dQ][dC][dR][dR][dK][dN]-OH): the “DNMT1 levels and AML cell survival” value in the assay with AML cell was “effectively reduces DNMT1 levels and AML cell survival”.

In the case of `Nc1ncn([C@H]2C[C@H](OP(=O)(O)OCC3O[C@@H](n4cnc5c(=O)[nH]c(N)nc54)CC3O)[C@@H](CO)O2)c(=O)n1` (stereo in doubt) [SGI-110, 2′-deoxy-5-aza-cytidylyl-(3′->5′)-2′-deoxy-guanosine], the “tumor antigen presentation, binding of TCRL antibody” value with THP-1 is on record as “increased binding of TCRL antibody”.

As for `CC1(C)CCC(c2ccc(Cl)cc2)=C(CN2CCN(c3ccc(C(=O)NS(=O)(=O)c4ccc(N[C@H](CCN5CCOCC5)CSc5ccccc5)c(S(=O)(=O)C(F)(F)F)c4)cc3)CC2)C1` [navitoclax, 4-[4-[[2-(4-chlorophenyl)-5,5-dimethylcyclohexen-1-yl]methyl]piperazin-1-yl]-N-[4-[[(2R)-4-morpholin-4-yl-1-phenylsulfanylbutan-2-yl]amino]-3-(trifluoromethylsulfonyl)phenyl]sulfonylbenzamide], in assay [1], the anti-cancer activity result is on record as “anti-cancer activity”.

Regarding `CN(C)CC[C@H](CSc1ccccc1)Nc1ccc(S(=O)(=O)NC(=O)c2ccc(N3CCN(Cc4ccccc4-c4ccc(Cl)cc4)CC3)cc2)cc1[N+](=O)[O-]` [ABT-737, 4-[4-[[2-(4-chlorophenyl)phenyl]methyl]piperazin-1-yl]-N-[4-[[(2R)-4-(dimethylamino)-1-phenylsulfanylbutan-2-yl]amino]-3-nitrophenyl]sulfonylbenzamide], the “activity against cell lines” value in assay [2] is listed as “single agent activity”.
